Biological target: T1, human PDE10A (Homo sapiens, UniProt Q9Y233)
T1 construct: The human PDE10A full length assay; purchased Enzo Life Science, Lausen, Switzerland SE-534
Assay: human PDE10A full length Scintillation Proximity Assay (SPA)
Type: biochemical
Conditions: 50 nM cGMP and 50 nM [3H]-cGMP, 20 minutes at room temperature; read-out: PDE10A inhibition IC50
Outline: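 Full-length enzyme at 3.75 ng/well in 20 mM HEPES pH 7.5, 10 mM MgCl2, 0.05 mg/ml BSA, with 50 nM cGMP plus 50 nM [3H]-cGMP substrate, 20 min at room temperature. Stopped with YSi-SPA beads in zinc sulphate and counted by scintillation. IC50 from inhibitor concentration series; no-enzyme wells define background.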

T1 sequence (Q9Y233 1-779 isoform Q9Y233-1): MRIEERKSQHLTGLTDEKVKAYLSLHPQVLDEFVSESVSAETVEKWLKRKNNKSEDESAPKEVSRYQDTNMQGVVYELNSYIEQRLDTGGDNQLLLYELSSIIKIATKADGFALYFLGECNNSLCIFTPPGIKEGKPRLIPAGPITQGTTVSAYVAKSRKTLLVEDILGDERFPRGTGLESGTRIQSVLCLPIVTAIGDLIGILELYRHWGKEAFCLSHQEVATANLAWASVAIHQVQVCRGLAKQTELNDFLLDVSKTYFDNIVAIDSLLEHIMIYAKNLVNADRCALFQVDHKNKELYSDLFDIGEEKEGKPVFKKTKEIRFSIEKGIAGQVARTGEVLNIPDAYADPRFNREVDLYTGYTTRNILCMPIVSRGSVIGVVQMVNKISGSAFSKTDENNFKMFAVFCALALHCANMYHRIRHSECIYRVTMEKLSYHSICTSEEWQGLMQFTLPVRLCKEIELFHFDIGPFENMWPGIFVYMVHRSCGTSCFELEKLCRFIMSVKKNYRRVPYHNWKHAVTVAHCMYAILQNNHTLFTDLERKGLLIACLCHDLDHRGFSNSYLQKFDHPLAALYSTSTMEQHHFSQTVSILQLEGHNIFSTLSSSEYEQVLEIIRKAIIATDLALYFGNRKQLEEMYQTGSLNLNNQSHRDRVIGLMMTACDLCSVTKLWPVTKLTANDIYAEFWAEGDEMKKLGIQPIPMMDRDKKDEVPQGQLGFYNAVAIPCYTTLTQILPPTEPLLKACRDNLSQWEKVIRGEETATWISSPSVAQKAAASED

SMILES | IC50 [µM]
Cc1cc(Br)c(C)c(C(=O)Nc2ccn3cc(-c4ccccc4)nc3n2)n1 [Example 24, 4-Bromo-3,6-dimethyl-pyridine-2-carboxylic acid (2-phenyl-imidazo[1,2-a]pyrimidin-7-yl)-amide] | 0.321
Cn1ncc(-c2ccno2)c1C(=O)Nc1ccn2cc(-c3ccccc3)nc2n1 [Example 20, 4-Isoxazol-5-yl-2-methyl-2H-pyrazole-3-carboxylic acid (2-phenyl-imidazo[1,2-a]pyrimidin-7-yl)-amide] | 0.643
O=C(Nc1ccn2cc(-c3ccccc3)nc2n1)c1nn[nH]c1C(=O)NC1COC1 [Example 141, N5-(oxetan-3-yl)-N4-(2-phenylimidazo[1,2-a]pyrimidin-7-yl)-1H-1,2,3-triazole-4,5-dicarboxamide] | 0.151
O=C(Nc1ccn2cc(-c3ccccc3)nc2n1)c1ccno1 [Example 2, Isoxazole-5-carboxylic acid (2-phenyl-imidazo[1,2-a]pyrimidin-7-yl)-amide] | 0.951
CCn1ncc(Cl)c1C(=O)Nc1ccn2cc(-c3ccccc3)nc2n1 [Example 7, 4-Chloro-2-ethyl-2H-pyrazole-3-carboxylic acid (2-phenyl-imidazo[1,2-a]pyrimidin-7-yl)-amide] | 0.14
O=C(Nc1ccn2cc(-c3ccccc3)nc2n1)c1cccnc1C(=O)N1CCC1 [Example 44, 2-(Azetidine-1-carbonyl)-N-(2-phenyl-imidazo[1,2-a]pyrimidin-7-yl)-nicotinamide] | 0.813
Cc1cccc(C(=O)Nc2ccn3cc(-c4ccccc4)nc3n2)n1 [Example 25, 6-Methyl-pyridine-2-carboxylic acid (2-phenyl-imidazo[1,2-a]pyrimidin-7-yl)-amide] | 0.324
Cn1ncc(C(=O)NCc2ccc(Cl)nc2)c1C(=O)Nc1ccn2cc(-c3ccccc3)nc2n1 [Example 154, N4-((6-chloropyridin-3-yl)methyl)-1-methyl-N5-(2-phenylimidazo[1,2-a]pyrimidin-7-yl)-1H-pyrazole-4,5-dicarboxamide] | 0.315
Cn1ncc(C(=O)NCc2ccncc2)c1C(=O)Nc1ccn2cc(-c3ccccc3)nc2n1 [Example 148, 1-methyl-N5-(2-phenylimidazo[1,2-a]pyrimidin-7-yl)-N4-(pyridin-4-ylmethyl)-1H-pyrazole-4,5-dicarboxamide] | 0.244
Cn1ncc(C(=O)NCC(C)(C)O)c1C(=O)Nc1ccn2cc(-c3ccccc3)nc2n1 [Example 72, 2-Methyl-2H-pyrazole-3,4-dicarboxylic acid 4-[(2-hydroxy-2-methyl-propyl)-amide]3-[(2-phenyl-imidazo[1,2-a]pyrimidin-7-yl)-amide]] | 0.463
CCc1cc(CNC(=O)c2cnn(C)c2C(=O)Nc2ccn3cc(-c4ccccc4)nc3n2)on1 [Example 160, N4-((3-ethylisoxazol-5-yl)methyl)-1-methyl-N5-(2-phenylimidazo[1,2-a]pyrimidin-7-yl)-1H-pyrazole-4,5-dicarboxamide] | 0.459
Cn1ncc(C(=O)NCc2nc3ccccc3o2)c1C(=O)Nc1ccn2cc(-c3ccccc3)nc2n1 [Example 170, N4-(benzo[d]oxazol-2-ylmethyl)-1-methyl-N5-(2-phenylimidazo[1,2-a]pyrimidin-7-yl)-1H-pyrazole-4,5-dicarboxamide] | 0.969
Cn1ncc(C(=O)NCc2nc(C#N)cs2)c1C(=O)Nc1ccn2cc(-c3ccccc3)nc2n1 [Example 151, N4-((4-cyanothiazol-2-yl)methyl)-1-methyl-N5-(2-phenylimidazo[1,2-a]pyrimidin-7-yl)-1H-pyrazole-4,5-dicarboxamide] | 0.288

These reach a lower IC50. Values come first.

IC50 [µM] | SMILES
0.089 | CN(CCOCCF)C(=O)c1cnn(C)c1C(=O)Nc1ccn2cc(-c3cccc(OCCF)c3)nc2n1 [Example 109, 2-Methyl-2H-pyrazole-3,4-dicarboxylic acid 4-{[2-(2-fluoro-ethoxy)-ethyl]-methyl-amide}3-({2-[3-(2-fluoro-ethoxy)-phenyl]-imidazo[1,2-a]pyrimidin-7-yl}-amide)]
0.0864 | COCCCNC(=O)c1cnn(C)c1C(=O)Nc1ccn2cc(-c3ccccc3)nc2n1 [Example 39, 2-Methyl-2H-pyrazole-3,4-dicarboxylic acid 4-[(3-methoxy-propyl)-amide]3-[(2-phenyl-imidazo[1,2-a]pyrimidin-7-yl)-amide]]
0.0817 | CN(CCF)C(=O)c1cnn(C)c1C(=O)Nc1ccn2cc(-c3cccc(OCF)c3)nc2n1 [Example 108, 2-Methyl-2H-pyrazole-3,4-dicarboxylic acid 4-[(2-fluoro-ethyl)-methyl-amide]3-{[2-(3-fluoromethoxy-phenyl)-imidazo[1,2-a]pyrimidin-7-yl]-amide}]
0.0519 | COCCN(C)C(=O)c1cnn(C)c1C(=O)Nc1ccn2cc(-c3cccc(F)c3)nc2n1 [Example 107, 2-Methyl-2H-pyrazole-3,4-dicarboxylic acid 3-{[2-(3-fluoro-phenyl)-imidazo[1,2-a]pyrimidin-7-yl]-amide}4-[(2-methoxy-ethyl)-methyl-amide]]
0.0446 | CCCCn1ncc(Cl)c1C(=O)Nc1ccn2cc(-c3ccccc3)nc2n1 [Example 9, 2-Butyl-4-chloro-2H-pyrazole-3-carboxylic acid (2-phenyl-imidazo[1,2-a]pyrimidin-7-yl)-amide]
0.0332 | CN(CCC#N)C(=O)c1cnn(C)c1C(=O)Nc1ccn2cc(-c3ccccc3)nc2n1 [Example 70, 2-Methyl-2H-pyrazole-3,4-dicarboxylic acid 4-[(2-cyano-ethyl)-methyl-amide]3-[(2-phenyl-imidazo[1,2-a]pyrimidin-7-yl)-amide]]
0.0331 | Cn1ncc(C(=O)N2CCOCC2)c1C(=O)Nc1ccn2cc(-c3ccccc3)nc2n1 [Example 30, 2-Methyl-4-(morpholine-4-carbonyl)-2H-pyrazole-3-carboxylic acid (2-phenyl-imidazo[1,2-a]pyrimidin-7-yl)-amide]
0.0287 | Cn1ncc(C(=O)N2CCC2)c1C(=O)Nc1ccn2cc(-c3cccc(OCCF)c3)nc2n1 [Example 103, 4-(Azetidine-1-carbonyl)-2-methyl-2H-pyrazole-3-carboxylic acid {2-[3-(2-fluoro-ethoxy)-phenyl]imidazo[1,2-a]pyrimidin-7-yl}-amide]
0.0236 | CN(CCO)C(=O)c1cnn(C)c1C(=O)Nc1ccn2cc(-c3ccccc3)nc2n1 [Example 53, 2-Methyl-2H-pyrazole-3,4-dicarboxylic acid 4-[(2-hydroxy-ethyl)-methyl-amide]3-[(2-phenyl-imidazo[1,2-a]pyrimidin-7-yl)-amide]]
0.023 | CCCNC(=O)c1cnn(C)c1C(=O)Nc1ccn2cc(-c3ccccc3)nc2n1 [Example 57, 2-Methyl-2H-pyrazole-3,4-dicarboxylic acid 3-[(2-phenyl-imidazo[1,2-a]pyrimidin-7-yl)-amide]-4-propylamide]
0.0173 | Cn1ncc(C(=O)NCCF)c1C(=O)Nc1ccn2cc(-c3ccccc3)nc2n1 [Example 123, N4-(2-fluoroethyl)-1-methyl-N5-(2-phenylimidazo[1,2-a]pyrimidin-7-yl)-1H-pyrazole-4,5-dicarboxamide]
0.0148 | Cn1ncc(C(=O)NC2CC2)c1C(=O)Nc1ccn2cc(-c3ccccc3)nc2n1 [Example 51, 2-Methyl-2H-pyrazole-3,4-dicarboxylic acid 4-cyclopropylamide 3-[(2-phenyl-imidazo[1,2-a]pyrimidin-7-yl)-amide]]
0.0147 | COc1cccc(-c2cn3ccc(NC(=O)c4c(C(=O)N5CC(F)C5)cnn4C)nc3n2)c1 [Example 98, 4-(3-Fluoro-azetidine-1-carbonyl)-2-methyl-2H-pyrazole-3-carboxylic acid [2-(3-methoxy-phenyl)-imidazo[1,2-a]pyrimidin-7-yl]-amide]
0.0126 | COCCN(C)C(=O)c1cnn(C)c1C(=O)Nc1ccn2cc(-c3cccc(OCCF)c3)nc2n1 [Example 96, 2-Methyl-2H-pyrazole-3,4-dicarboxylic acid 3-({2-[3-(2-fluoro-ethoxy)-phenyl]-imidazo[1,2-a]pyrimidin-7-yl}-amide) 4-[(2-methoxy-ethyl)-methyl-amide]]
0.0085 | COCCN(C)C(=O)c1cnn(C)c1C(=O)Nc1ccn2cc(-c3ccccc3)nc2n1 [Example 55, 2-Methyl-2H-pyrazole-3,4-dicarboxylic acid 4-[(2-methoxy-ethyl)-methyl-amide]3-[(2-phenyl-imidazo[1,2-a]pyrimidin-7-yl)-amide]]
0.0083 | COc1cccc(-c2cn3ccc(NC(=O)c4c(C(=O)N5CCC5)cnn4C)nc3n2)c1 [Example 45, 4-(Azetidine-1-carbonyl)-2-methyl-2H-pyrazole-3-carboxylic acid [2-(3-methoxy-phenyl)-imidazo[1,2-a]pyrimidin-7-yl]-amide]
0.0061 | Cn1ncc(C(=O)N2CC(F)C2)c1C(=O)Nc1ccn2cc(-c3cccc(OCCF)c3)nc2n1 [Example 90, 4-(3-Fluoro-azetidine-1-carbonyl)-2-methyl-2H-pyrazole-3-carboxylic acid {2-[3-(2-fluoro-ethoxy)-phenyl]imidazo[1,2-a]pyrimidin-7-yl}-amide]
0.0029 | Cn1ncc(C(=O)N2CCCCC2)c1C(=O)Nc1ccn2cc(-c3ccccc3)nc2n1 [Example 52, 2-Methyl-4-(piperidine-1-carbonyl)-2H-pyrazole-3-carboxylic acid (2-phenyl-imidazo[1,2-a]pyrimidin-7-yl)-amide]
0.0028 | CCN(C)C(=O)c1cnn(CC)c1C(=O)Nc1ccn2cc(-c3ccccc3)nc2n1 [Example 73, 2-Ethyl-2H-pyrazole-3,4-dicarboxylic acid 4-(ethyl-methyl-amide) 3-[(2-phenyl-imidazo[1,2-a]pyrimidin-7-yl)-amide]]
0.0013 | Cn1ncc(C(=O)NCc2cocn2)c1C(=O)Nc1ccn2cc(-c3ccccc3)nc2n1 [Example 112, 1-methyl-N4-(oxazol-4-ylmethyl)-N5-(2-phenylimidazo[1,2-a]pyrimidin-7-yl)-1H-pyrazole-4,5-dicarboxamide]

From US8410117B2, “Imidazopyrimidine derivatives” (Hoffmann-La Roche Inc., priority 2010, dated 2013)
